In patent US20150105252A1, “SUBSTITUTED PYRAZOLES AS HERBICIDES” (E I DU PONT DE NEMOURS AND COMPANY, priority 2013, published 2015):

Experiments:
[1] = tested on: wheat; test: Test A preemergence; format: in vivo, Triticum aestivum; conditions: preemergence
Procedure, shortened: (§1)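 Scoring was visual, on a scale where 100 means complete control and 0 means no effect, comparing treated with untreated plants around 10 days post-application. Compounds in surfactant-containing non-phytotoxic solvent were sprayed onto soil preemergence or onto one- to two-leaf seedlings (2–10 cm) postemergence.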

[2] = tested on: velvetleaf; test: Test A preemergence; format: in vivo, Abutilon theophrasti; conditions: preemergence
Procedure, shortened: as §1

[3] = tested on: pigweed; test: Test A postemergence; format: in vivo, Amaranthus retroflexus
Procedure, shortened: as §1

[4] = tested on: crabgrass, large; test: Test A preemergence; format: in vivo, Digitaria sanguinalis; conditions: preemergence
Procedure, shortened: as §1

[5] = tested on: morningglory; test: Test A preemergence; format: in vivo, Ipomoea spp.; conditions: preemergence
Procedure, shortened: as §1

[6] = tested on: corn; test: Test A postemergence; format: in vivo, Zea mays
Procedure, shortened: as §1

[7] = tested on: corn; test: Test A preemergence; format: in vivo, Zea mays; conditions: preemergence
Procedure, shortened: as §1

[8] = tested on: sedge, umbrella; test: Test B flood; format: in vivo, Cyperus difformis; conditions: 250 g ai/ha, visual rating on 0 to 100 scale (0 no effect, 100 complete control), 13 to 15 days
Procedure, shortened: (§2)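 Flooded-pot test: compound dosed into 3 cm of standing water above soil when plants had two leaves. Visual control ratings (0–100) versus untreated plants after 13–15 d.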

[9] = tested on: morningglory; test: Test A postemergence; format: in vivo, Ipomoea spp.
Procedure, shortened: as §1

[10] = tested on: foxtail, giant; test: Test A preemergence; format: in vivo, Setaria faberii; conditions: preemergence
Procedure, shortened: as §1

[11] = tested on: velvetleaf; test: Test A postemergence; format: in vivo, Abutilon theophrasti
Procedure, shortened: as §1

[12] = tested on: crabgrass, large; test: Test A postemergence; format: in vivo, Digitaria sanguinalis
Procedure, shortened: as §1

[13] = tested on: wheat; test: Test A postemergence; format: in vivo, Triticum aestivum
Procedure, shortened: as §1

[14] = tested on: barnyardgrass; test: Test A preemergence; format: in vivo, Echinochloa crus-galli; conditions: preemergence
Procedure, shortened: as §1

[15] = tested on: ducksalad; test: Test B flood; format: in vivo, Heteranthera limosa; conditions: 250 g ai/ha, visual rating on 0 to 100 scale (0 no effect, 100 complete control), 13 to 15 days
Procedure, shortened: as §2

[16] = tested on: barnyardgrass; test: Test B flood; format: in vivo, Echinochloa crus-galli; conditions: 250 g ai/ha, visual rating on 0 to 100 scale (0 no effect, 100 complete control), 13 to 15 days
Procedure, shortened: as §2

[17] = tested on: pigweed; test: Test A preemergence; format: in vivo, Amaranthus retroflexus; conditions: preemergence
Procedure, shortened: as §1

[18] = tested on: rice; test: Test B flood; format: in vivo, Oryza sativa; conditions: 250 g ai/ha, visual rating on 0 to 100 scale (0 no effect, 100 complete control), 13 to 15 days
Procedure, shortened: as §2

[19] = tested on: barnyardgrass; test: Test A postemergence; format: in vivo, Echinochloa crus-galli
Procedure, shortened: as §1

[20] = tested on: foxtail, giant; test: Test A postemergence; format: in vivo, Setaria faberii
Procedure, shortened: as §1

[21] = 125 g ai/ha, visual injury approx. 10 days after treatment
[22] = 500 g ai/ha, visual injury, 0 to 100 scale, approx. 10 days
[23] = Postemergence, 125 g ai/ha, 0 to 100 scale, 0 no effect, 100 complete control
[24] = Postemergence, 500 g ai/ha, 0 to 100 scale (0 no effect, 100 complete control)
[25] = 125 g ai/ha, visual injury, 0 to 100 scale, approx. 10 days
[26] = 500 g ai/ha, visual injury after approx. 10 days, 0 to 100 scale (0 no effect, 100 complete control)
[27] = postemergence, 125 g ai/ha, about 10 days, visual rating on 0 to 100 scale (0 no effect, 100 complete control)

Structure (SMILES): CCONC(=O)c1cc(C)n(Cc2ccnc(C(F)(F)F)c2)n1 [Compound 231]
- Wheat plant response rating (0 to 100 scale) [1, 21]: 0
- Wheat plant response rating [1, 22]: 0
- Velvetleaf plant response rating (0 to 100 scale) [2, 21]: 0
- Velvetleaf plant response rating [2, 22]: 0
- Pigweed plant response rating [3, 23]: 0
- Pigweed plant response rating [3, 24]: 0
- Crabgrass, Large plant response rating (0 to 100 scale) [4, 21]: 0
- Crabgrass, Large plant response rating [4, 22]: 0
- Morningglory plant response rating (0 to 100 scale) [5, 21]: 0
- Morningglory plant response rating [5, 22]: 0
- Corn plant response rating [6, 23]: 0
- Corn plant response rating [6, 24]: 10
- Corn plant response rating (0 to 100 scale) [7, 21]: 0
- Corn plant response rating [7, 22]: 0
- Plant response rating, Sedge, Umbrella [8]: 0
- Morningglory plant response rating [9, 23]: 0
- Morningglory plant response rating [9, 24]: 0
- Foxtail, Giant plant response rating (0 to 100 scale) [10, 21]: 0
- Foxtail, Giant plant response rating [10, 22]: 0
- Velvetleaf plant response rating [11, 23]: 0
- Velvetleaf plant response rating [11, 24]: 0
- Crabgrass, Large plant response rating [12, 23]: 0
- Crabgrass, Large plant response rating [12, 24]: 10
- Wheat plant response rating [13, 23]: 0
- Wheat plant response rating [13, 24]: 0
- Barnyardgrass plant response rating (0 to 100 scale, 0 is no effect, 100 is complete control) [14, 21]: 0
- Barnyardgrass plant response rating ([14]; 500 g ai/ha, visual injury, 0 to 100 scale (0 no effect, 100 complete control), approx. 10 days): 0
- Plant response rating, Ducksalad [15]: 0
- Plant response rating, Barnyardgrass [16]: 0
- Pigweed plant response rating (0 to 100 scale) [17, 21]: 0
- Pigweed plant response rating [17, 22]: 0
- Plant response rating, Rice [18]: 0
- Barnyardgrass plant response rating [19, 23]: 0
- Barnyardgrass plant response rating [19, 24]: 0
- Foxtail, Giant plant response rating [20, 23]: 0
- Foxtail, Giant plant response rating [20, 24]: 0

Structure (SMILES): CCc1cc(C(=O)NC(C)C)nn1Cc1cc(C(F)(F)F)nn1CC [Compound 120]
- Wheat plant response rating [1, 25]: 0
- Wheat plant response rating [1, 26]: 40
- Velvetleaf plant response rating [2, 25]: 10
- Velvetleaf plant response rating [2, 26]: 70
- Pigweed plant response rating [3, 24]: 80
- Pigweed plant response rating [3, 27]: 50
- Crabgrass, Large plant response rating [4, 25]: 100
- Crabgrass, Large plant response rating [4, 26]: 100
- Morningglory plant response rating [5, 25]: 70
- Morningglory plant response rating [5, 26]: 100
- Corn plant response rating [6, 24]: 60
- Corn plant response rating [6, 27]: 30
- Corn plant response rating [7, 25]: 20
- Corn plant response rating [7, 26]: 50
- Plant response rating, Sedge, Umbrella [8]: 80
- Morningglory plant response rating [9, 24]: 100
- Morningglory plant response rating [9, 27]: 80
- Foxtail, Giant plant response rating [10, 25]: 60
- Foxtail, Giant plant response rating [10, 26]: 90
- Velvetleaf plant response rating [11, 24]: 80
- Velvetleaf plant response rating [11, 27]: 30
- Crabgrass, Large plant response rating [12, 24]: 80
- Crabgrass, Large plant response rating [12, 27]: 30
- Wheat plant response rating [13, 24]: 30
- Wheat plant response rating [13, 27]: 0
- Barnyardgrass plant response rating [14, 25]: 20
- Barnyardgrass plant response rating [14, 26]: 100
- Plant response rating, Ducksalad [15]: 40
- Plant response rating, Barnyardgrass [16]: 0
- Pigweed plant response rating [17, 25]: 70
- Pigweed plant response rating [17, 26]: 90
- Plant response rating, Rice [18]: 0
- Barnyardgrass plant response rating [19, 24]: 90
- Barnyardgrass plant response rating [19, 27]: 30
- Foxtail, Giant plant response rating [20, 24]: 70
- Foxtail, Giant plant response rating [20, 27]: 30
